The AC50 is the concentration giving half of the maximal activity seen.

Where only a bound is given, the exact number is not on record here.

In patent US20260138961A1, “MODULATORS OF MITOCHONDRIAL DNA REPLICATION” (Pretzel Therapeutics, Inc., priority 2022, published 2026) one finds AC50 data, which are given here for 9 molecules.

The target in this experiment is T1, POLγA:A467T (Homo sapiens, UniProt P54098, A467T).
T1 sequence (P54098 1-1239 A467T): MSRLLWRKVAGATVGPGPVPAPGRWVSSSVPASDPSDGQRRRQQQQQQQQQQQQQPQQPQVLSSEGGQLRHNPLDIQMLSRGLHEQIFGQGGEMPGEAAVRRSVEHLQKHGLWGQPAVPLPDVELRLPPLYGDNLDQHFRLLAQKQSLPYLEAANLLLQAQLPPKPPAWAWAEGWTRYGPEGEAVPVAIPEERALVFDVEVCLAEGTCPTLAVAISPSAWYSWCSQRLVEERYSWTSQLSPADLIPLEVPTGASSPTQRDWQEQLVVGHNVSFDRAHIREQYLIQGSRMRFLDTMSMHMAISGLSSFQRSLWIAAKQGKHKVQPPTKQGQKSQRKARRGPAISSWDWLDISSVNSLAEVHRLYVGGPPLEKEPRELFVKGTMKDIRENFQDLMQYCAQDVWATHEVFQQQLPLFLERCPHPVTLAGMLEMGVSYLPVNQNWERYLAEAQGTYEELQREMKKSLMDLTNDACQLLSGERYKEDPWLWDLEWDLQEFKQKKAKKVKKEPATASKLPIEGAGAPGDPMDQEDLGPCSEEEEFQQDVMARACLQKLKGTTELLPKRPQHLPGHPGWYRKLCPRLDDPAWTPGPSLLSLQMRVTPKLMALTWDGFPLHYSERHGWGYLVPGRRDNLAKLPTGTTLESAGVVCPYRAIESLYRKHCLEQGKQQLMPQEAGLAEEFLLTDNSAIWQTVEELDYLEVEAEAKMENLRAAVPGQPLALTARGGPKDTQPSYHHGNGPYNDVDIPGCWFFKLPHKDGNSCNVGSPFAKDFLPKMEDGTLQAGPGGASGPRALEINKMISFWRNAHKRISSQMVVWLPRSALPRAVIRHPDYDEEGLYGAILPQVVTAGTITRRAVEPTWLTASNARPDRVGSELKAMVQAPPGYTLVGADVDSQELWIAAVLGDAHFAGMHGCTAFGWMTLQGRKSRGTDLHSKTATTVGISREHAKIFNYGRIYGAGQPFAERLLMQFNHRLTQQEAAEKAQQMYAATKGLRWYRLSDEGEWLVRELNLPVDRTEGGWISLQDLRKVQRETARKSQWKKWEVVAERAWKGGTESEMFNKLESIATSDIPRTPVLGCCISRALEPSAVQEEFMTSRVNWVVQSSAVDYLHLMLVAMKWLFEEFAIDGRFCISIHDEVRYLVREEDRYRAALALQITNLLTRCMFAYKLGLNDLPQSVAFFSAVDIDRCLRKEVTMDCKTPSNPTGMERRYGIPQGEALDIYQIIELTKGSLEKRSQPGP
T1 sequence (Q9UHN1 1-485 partner): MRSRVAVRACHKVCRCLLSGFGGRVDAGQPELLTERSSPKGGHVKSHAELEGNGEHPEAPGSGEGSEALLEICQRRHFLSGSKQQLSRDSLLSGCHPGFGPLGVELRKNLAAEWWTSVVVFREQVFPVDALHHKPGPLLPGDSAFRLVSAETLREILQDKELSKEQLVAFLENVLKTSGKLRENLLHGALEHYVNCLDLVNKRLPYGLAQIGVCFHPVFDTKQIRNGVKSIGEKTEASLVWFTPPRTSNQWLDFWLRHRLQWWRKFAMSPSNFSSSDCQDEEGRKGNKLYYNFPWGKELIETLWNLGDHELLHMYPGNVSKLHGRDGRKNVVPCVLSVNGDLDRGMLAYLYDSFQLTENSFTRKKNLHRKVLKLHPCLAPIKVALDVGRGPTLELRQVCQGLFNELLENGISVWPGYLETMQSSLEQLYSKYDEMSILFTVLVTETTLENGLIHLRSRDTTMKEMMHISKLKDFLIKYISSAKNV
Nature of the experiment: DNA polymerization assay, POLγA:A467T mutant. It is filed as biochemical. Particulars: stimulation of polymerase activity, primed M13mp18 ssDNA, 37° C. 2 hours; read-out: A467T AC50.
On to `Cc1cc(S(=O)(=O)Nc2cccc(C(=O)N3CCCOC(C)(C)C3)c2)c(C)cc1Cl` [Example 106, 4-chloro-N-(3-(2,2-dimethyl-1,4-oxazepane-4-carbonyl)phenyl)-2,5-dimethylbenzenesulfonamide], for which the concentration at half-maximal activity (AC50) is greater than 100 µM. Under `Cc1cc(S(=O)(=O)Nc2cccc(C(=O)N3CCC[C@H]3C)c2)c(C)cc1Cl` [Example 10, (R)-4-chloro-2,5-dimethyl-N-(3-(2-methylpyrrolidine-1-carbonyl)phenyl)benzenesulfonamide] stands 12 µM; under `Cc1cnc(-c2cc(NS(=O)(=O)c3cc(C)c(Cl)cc3C)ccc2C)s1` [Example 103, 4-chloro-2,5-dimethyl-N-(4-methyl-3-(5-methylthiazol-2-yl)phenyl)benzenesulfonamide], greater than 100 µM.

Consider `Cc1cc(S(=O)(=O)Nc2cccc(C(=O)NCc3ccccc3)c2)c(C)cc1Cl` [Example 11, N-benzyl-3-((4-chloro-2,5-dimethylphenyl)sulfonamido)benzamide], for which the AC50 stood at 49 µM. Next, “(R)-2,5-dimethyl-N-(3-(3-methylmorpholine-4-carbonyl)phenyl)benzenesulfonamide [Example 1]”: 44 µM; `Cc1cc(S(=O)(=O)Nc2cccc(C(=O)N3CCc4cn[nH]c4C3)c2)c(C)cc1Cl` [Example 107, 4-chloro-2,5-dimethyl-N-(3-(4,5,6,7-tetrahydro-1H-pyrazolo[3,4-c]pyridine-6-carbonyl)phenyl)benzenesulfonamide]: 28 µM. Take `Cc1cc(S(=O)(=O)Nc2cccc(C(=O)N3CCC[C@H]3CO)c2)c(C)cc1Cl` [Example 145, (S)-4-chloro-N-(3-(2-(hydroxymethyl)pyrrolidine-1-carbonyl)phenyl)-2,5-dimethylbenzenesulfonamide]: the AC50 is greater than 100 µM. Under `Cc1cc(S(=O)(=O)N[C@@H]2CCCN(C(=O)[C@H]3CCCN3C)C2)c(C)cc1Cl` [Example 100, 4-chloro-2,5-dimethyl-N-((R)-1-(methyl-D-prolyl)piperidin-3-yl)benzenesulfonamide] stands greater than 100 µM; under `Cc1ccc(C)c(S(=O)(=O)Nc2cccc(C(=O)N3CCCC[C@@H]3C)c2)c1` [Example 6, (S)-2,5-dimethyl-N-(3-(2-methylpiperidine-1-carbonyl)phenyl)benzenesulfonamide], 95 µM.
